The subject of this assay is P388 leukemia ip, CD2F1 mice, survival T/C. As to the kind of experiment: NCI In Vivo Anticancer Drug Screen. Data for tumor model P388 Leukemia (intraperitoneal) in CD2F1 (CDF1) mice. The note with it: endpoint: median survival time, higher = longer survival. In a few lines:
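Mice carrying the transplanted tumor received test compound or vehicle. Survival was recorded in each group, and the value is the treated-group measurement divided by that of the vehicle-treated control group.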

[1] abbreviates: dose: 2.5 mg/kg/injection, schedule: Q04DX003 (ip), vehicle: water.
[2] abbreviates: dose: 5.0 mg/kg/injection, schedule: Q04DX003 (ip), vehicle: water.
Setting [3] is: dose: 10.0 mg/kg/injection, schedule: Q04DX003 (ip), vehicle: water.
Setting [4] is: dose: 20.0 mg/kg/injection, schedule: Q04DX003 (ip), vehicle: water.
The mark [5] stands for this setting: dose: 40.0 mg/kg/injection, schedule: Q04DX003 (ip), vehicle: water.
The mark [6] stands for this setting: dose: 50.0 mg/kg/injection, schedule: Q01DX009 (ip), vehicle: Klucel (hydroxypropylcellulose) (HPC).
Where [7] appears, read: dose: 100.0 mg/kg/injection, schedule: Q01DX009 (ip), vehicle: Klucel (hydroxypropylcellulose) (HPC).
Where [8] appears, read: dose: 200.0 mg/kg/injection, schedule: Q01DX009 (ip), vehicle: Klucel (hydroxypropylcellulose) (HPC).
Where [9] appears, read: dose: 60.0 mg/kg/injection, schedule: Q01DX005 (ip), vehicle: saline with Tween-80.
[10] abbreviates: dose: 120.0 mg/kg/injection, schedule: Q01DX005 (ip), vehicle: saline with Tween-80.
Setting [11] is: dose: 240.0 mg/kg/injection, schedule: Q01DX005 (ip), vehicle: saline with Tween-80.
[12] abbreviates: dose: 25.0 mg/kg/injection, schedule: Q01DX009 (ip), vehicle: Klucel (hydroxypropylcellulose) (HPC).
Where [13] appears, read: dose: 50.0 mg/kg/injection, schedule: Q01DX009 (ip), vehicle: saline with Tween-80.
Where [14] appears, read: dose: 100.0 mg/kg/injection, schedule: Q01DX009 (ip), vehicle: saline with Tween-80.
Where [15] appears, read: dose: 100.0 mg/kg/injection, schedule: Q01DX001 (ip), vehicle: saline with Tween-80.
Where [16] appears, read: dose: 200.0 mg/kg/injection, schedule: Q01DX001 (ip), vehicle: saline with Tween-80.
Setting [17] is: dose: 400.0 mg/kg/injection, schedule: Q01DX001 (ip), vehicle: saline with Tween-80.

“And” between values parts separate entries of the source, which are not always exact repeats. Equal values may be shown once. Toxic doses and inconclusive results are not listed.

`COc1cccc2c1C(=O)c1c(O)c3c(c(O)c1C2=O)C[C@@](O)(C(C)O)C[C@@H]3OC1CC(N2CCCCC2)C(O)C(C)O1` (stereo not given in full): the T/C is 120 % of control under setting [1]; 162 % of control under setting [2]; 118 % of control under setting [3]; 110 % of control under setting [4]; 96 % of control under setting [5].

For `COc1cccc2c1C(=O)c1c(O)c3c(c(O)c1C2=O)CC(O)(C(C)=O)CC3OC1CC(NC(=O)C(N)CCCCN)C(O)C(C)O1` (stereo not given), the T/C was 101 % of control under setting [1]; 101 % of control and 103 % of control under setting [2]; 95 % of control (dose: 10.0 mg/kg/injection, schedule: Q04DX003 (ip), vehicle: distilled water + Tween-80); 101 % of control and 109 % of control under setting [3]; 96 % of control (dose: 20.0 mg/kg/injection, schedule: Q04DX003 (ip), vehicle: distilled water + Tween-80); 109 % of control and 118 % of control under setting [4]. Further, the T/C is 105 % of control (dose: 40.0 mg/kg/injection, schedule: Q04DX003 (ip), vehicle: distilled water + Tween-80); 106 % of control and 122 % of control under setting [5]; 112 % of control (dose: 80.0 mg/kg/injection, schedule: Q04DX003 (ip), vehicle: distilled water + Tween-80); 118 % of control (dose: 80.0 mg/kg/injection, schedule: Q04DX003 (ip), vehicle: water).

Take `COc1ccc2nc(C)c(C(=O)O)c(C(=O)O)c2c1`: the T/C is 99 % of control (dose: 50.0 mg/kg/injection, schedule: Q01DX009 (ip), vehicle: suspension in saline); 103 % of control (dose: 100.0 mg/kg/injection, schedule: Q01DX009 (ip), vehicle: suspension in saline); 108 % of control (dose: 200.0 mg/kg/injection, schedule: Q01DX009 (ip), vehicle: suspension in saline).

As to `CN(C)CC(OCCc1ccccc1)C(Cl)(Cl)Cl` (stereo not given), the T/C reads like this: under setting [6], 107 % of control; under setting [7], 109 % of control; under setting [8], 109 % of control.

On to `O=[N+]([O-])c1ccc(-c2csc(NCC3CCCO3)n2)cc1` (stereo not given), for which the T/C reads like this: under setting [6], 101 % of control; under setting [7], 100 % of control; under setting [8], 100 % of control.

Consider `COC(=O)C1CCC(=O)N1Cc1cccs1` (stereo not given), for which the T/C runs as follows: under setting [9], 109 % of control; under setting [10], 104 % of control; under setting [11], 106 % of control.

As to `CNCCNc1ccc(C)c2sc3ccc(O)cc3c(=O)c12`, the T/C under setting [12] was 95 % of control.

For the molecule `CN(C)CCC(=O)C(=Cc1c(Cl)cccc1Cl)C(=O)CCN(C)C`, the T/C (dose: 7.5 mg/kg/injection, schedule: Q01DX005 (ip), vehicle: saline) is 119 % of control and 120 % of control; the T/C (dose: 15.0 mg/kg/injection, schedule: Q01DX005 (ip), vehicle: saline) is 120 % of control and 123 % of control.

Turning to `O=[N+]([O-])c1cccn2nnnc12`, the T/C is 102 % of control (dose: 3.12 mg/kg/injection, schedule: Q01DX009 (ip), vehicle: saline with Tween-80); 87 % of control (dose: 6.25 mg/kg/injection, schedule: Q01DX009 (ip), vehicle: saline with Tween-80); 93 % of control (dose: 12.5 mg/kg/injection, schedule: Q01DX009 (ip), vehicle: saline with Tween-80); 95 % of control (dose: 25.0 mg/kg/injection, schedule: Q01DX009 (ip), vehicle: saline with Tween-80); 117 % of control and 96 % of control under setting [13]; 119 % of control under setting [14].

On to `CC1(C)Oc2cc3oc(C(=O)O)cc(=O)c3cc2-c2ccccc21`, for which the T/C (dose: 50.0 mg/kg/injection, schedule: Q01DX009 (ip), vehicle: saline) is 92 % of control; the T/C (dose: 100.0 mg/kg/injection, schedule: Q01DX009 (ip), vehicle: saline) was 96 % of control; the T/C (dose: 200.0 mg/kg/injection, schedule: Q01DX009 (ip), vehicle: saline) was 109 % of control.

Turning to `O=C(c1ccc(-c2ccccc2)cc1)C1CC1c1ccccc1` (stereo not given), the T/C is, setting by setting: (dose: 25.0 mg/kg/injection, schedule: Q01DX001 (ip), vehicle: saline sonified) 109 % of control; (dose: 50.0 mg/kg/injection, schedule: Q01DX001 (ip), vehicle: saline sonified) 90 % of control; (dose: 100.0 mg/kg/injection, schedule: Q01DX001 (ip), vehicle: saline sonified) 90 % of control.

Turning to `CC1(C)CCCc2c(-c3ccccc3)cc3c4ccccc4cc[n+]3c21`, the T/C under setting [13] is 89 % of control and the T/C under setting [14] is 88 % of control.

Regarding `O=C(O)c1ccc(-c2nn[nH]n2)cc1`, the T/C (dose: 6.25 mg/kg/injection, schedule: Q01DX009 (ip), vehicle: Klucel (hydroxypropylcellulose) (HPC)) is 107 % of control; the T/C (dose: 12.5 mg/kg/injection, schedule: Q01DX009 (ip), vehicle: Klucel (hydroxypropylcellulose) (HPC)) was 103 % of control; the T/C under setting [12] is 110 % of control; the T/C under setting [7] is 92 % of control; the T/C under setting [8] is 89 % of control.

On to `O=C(O)CC(Sc1ccc(Cl)cc1)C(=O)Nc1ccccc1` (stereo not given), for which the T/C is 99 % of control under setting [9], 95 % of control under setting [10] and 98 % of control under setting [11].

For `c1ccc(-c2nc(-c3ccccn3)cc3ccccc23)cc1`, the T/C by setting is: under setting [15], 91 % of control; under setting [16], 92 % of control; under setting [17], 112 % of control.

As for `C[Si](C)(C)CCCn1cc(F)c(=O)n(CCC[Si](C)(C)C)c1=O`, the T/C is, setting by setting: under setting [9], 104 % of control; under setting [10], 104 % of control; under setting [11], 101 % of control.

For `O=C(O)C1CCCN1C(=O)OCC1c2ccccc2-c2ccccc21` (stereo not given), the T/C by setting is: (dose: 50.0 mg/kg/injection, schedule: Q01DX005 (ip), vehicle: Klucel (hydroxypropylcellulose) (HPC)) 99 % of control; (dose: 100.0 mg/kg/injection, schedule: Q01DX005 (ip), vehicle: Klucel (hydroxypropylcellulose) (HPC)) 99 % of control; (dose: 200.0 mg/kg/injection, schedule: Q01DX005 (ip), vehicle: Klucel (hydroxypropylcellulose) (HPC)) 95 % of control.

With `O=C1CC2(CCc3ccccc32)C(=O)N1CN1CCN(c2ccccn2)CC1` (stereo not given), the T/C (dose: 50.0 mg/kg/injection, schedule: Q01DX005 (ip), vehicle: saline with Tween-80) was 106 % of control; the T/C (dose: 100.0 mg/kg/injection, schedule: Q01DX005 (ip), vehicle: saline with Tween-80) is 109 % of control; the T/C (dose: 200.0 mg/kg/injection, schedule: Q01DX005 (ip), vehicle: saline with Tween-80) is 92 % of control.

For the molecule `CCSc1ccc(C(=O)C2(C)Cc3ccccc3CN2)cc1` (stereo not given), the T/C under setting [15] is 100 % of control, the T/C under setting [16] was 99 % of control and the T/C under setting [17] was 98 % of control.

On to `CCCCCCSc1nc2ccc(NC(C)=O)cc2s1`, for which the T/C runs as follows: under setting [6], 107 % of control; under setting [7], 90 % of control.

On to `C=CN1CCCC1=O`, for which the T/C was 104 % of control (dose: 100.0 mg/kg/injection, schedule: Q04DX003 (ip), vehicle: saline); 100 % of control (dose: 200.0 mg/kg/injection, schedule: Q04DX003 (ip), vehicle: saline); 100 % of control (dose: 0.25 % in 0.5 ml injection vol, schedule: Q01DX009 (ip), vehicle: water); 100 % of control (dose: 400.0 mg/kg/injection, schedule: Q04DX003 (ip), vehicle: saline); 107 % of control (dose: 0.5 % in 0.5 ml injection vol, schedule: Q01DX009 (ip), vehicle: water); 100 % of control and 102 % of control (dose: 1.0 % in 0.5 ml injection vol, schedule: Q01DX009 (ip), vehicle: water). In addition, the T/C (dose: 2.0 % in 0.5 ml injection vol, schedule: Q01DX009 (ip), vehicle: water) is 100 % of control and 98 % of control; the T/C (dose: 4.0 % in 0.5 ml injection vol, schedule: Q01DX009 (ip), vehicle: water) is 102 % of control and 104 % of control and 108 % of control; the T/C (dose: 8.0 % in 0.5 ml injection vol, schedule: Q01DX009 (ip), vehicle: water) is 102 % of control and 109 % of control and 92 % of control; the T/C (dose: 16.0 % in 0.5 ml injection vol, schedule: Q01DX009 (ip), vehicle: water) was 100 % of control and 103 % of control and 95 % of control.

As to `CC1SC2(C(=O)Nc3ccc([N+](=O)[O-])cc32)N(c2ccc(Cl)cc2)C1=O` (stereo not given), the T/C was 91 % of control under setting [9], 91 % of control under setting [10] and 91 % of control under setting [11].

With `Cc1nc2ccccc2nc1N1C(=O)c2ccccc2C1=O`, the T/C under setting [9] was 97 % of control, the T/C under setting [10] was 99 % of control and the T/C under setting [11] is 95 % of control.

(Values after PubChem BioAssay AID330 (DTP/NCI, 2004).)
